# Data as given in patent US20090311237A1, “Combination therapy using a soluble hyaluronidase and a bisphosphonate” (priority 2008, published 2009).
# Where two headings read alike, the source gives them in different places.
# Assay: Pharmacokinetics of ZA in pig serum after IV or SC infusion with or without rHuPH20 (LC-MS-MS, non-compartmental analysis)
# Format: in vivo
# Conditions: female, Yorkshire, pig, serum, […]
# Protocol: A pharmacokinetic study of zoledronic acid (ZA) co-administered with rHuPH20 in female Yorkshire swines was conducted. The primary objective of the study was to determine the bioavailability of zoledronic acid dosed via subcutaneous (SC) co-administration with human recombinant hyaluronidase PH20 (rHuPH20) and to compare the overall exposure to an equivalent IV dose.
# Animals in Study Group 1 were dosed with 0.15 mg/kg ZA given via a 20-minute IV infusion. Animals in Study Groups 2 and 3 were dosed subcutaneously (SC) with 0.15 mg/kg ZA without and with rHuPH20, respectively, in different SC delivery volumes.
# Following ZA dose administration, serial blood samples were collected via vascular access ports (VAPs) for serum preparation and determination of ZA concentrations. Blood collection times were at 1, 3, 5, 10, 15, 20, 30, 45, and 60 minutes, and at 1.5, 2, 3, 4, 6, 8, 10, 24, 48, and 72 hours post dose. Urine samples were also collected to compare excretion characteristics between IV and SC routes of administration. Collection times for urine were at 15 minutes before dosing (−15 min.), continuously from dose initiation to 2 hours post dose, and at 4, 6, 8, and 24 hours post dose thereafter.
# Serum concentration of ZA was determined using a qualified LC-MS-MS assay after derivatization with diazomethane (Zhu, L S et al. (2006) Rapid Commun. Mass Spectrom. 20: 3421-3426; “Qualification Data of An LC-MS/MS Method for the Determination of Zoledronate in Porcine Serum”, MDS Pharma Services Study No. AA43671-01, Report Date 14 Sep. 2007). The assay range was from 2.0 to 400 ng/mL with a lower limit of quantitation (LLOQ) at 2.0 ng/mL. Urine concentration of ZA was determined by a similar well qualified LC-MS-MS method (“Qualification Data of An LC-MS/MS Method for the Determination of Zoledronate in Porcine Urine”, MDS Pharma Services Study No. AA43671-02, Report Date 14 Sep. 2007) with an assay LLOQ at 10 ng/mL.
# Pharmacokinetic (PK) analyses of ZA serum concentration versus time data were conducted using WinNonlin v5.1 (Pharsight, Mountain View, Calif.). Non-compartmental analysis was used for derivation of primary and secondary pharmacokinetic (PK) parameters. AUC, Cmax, and Tmax were compared between dose routes, between co-administration with rHuPH20, and with dose of rHuPH20.
# [1] = intravenous, animal ID 61, Study Group 1, IV 20 min infusion, ZA […], rHuPH20 0 U/mL, read-out: Zoledronic Acid Serum Concentration
# [2] = intravenous, animal ID 67, Study Group 1, IV 20 min infusion, ZA […], rHuPH20 0 U/mL, read-out: Zoledronic Acid Serum Concentration
smiles,measurement,setting,value
"O=P(O)(O)C(O)(Cn1ccnc1)P(=O)(O)O [ZA, 1-hydroxy-2-(1H-imidazol-1-yl)ethylidene-1,1-bisphosphonic acid]",concentration at 2 h,[1],18.8 ng/mL
same,concentration at 3 h,[1],6.1 ng/mL
same,concentration at 4 h,[1],3.3 ng/mL
same,concentration at 0.05 h,"intravenous, animal ID 67, Study Group 1, IV 20 min infusion, ZA […], rHuPH20 0 U/mL, time 0.05 h, read-out: Zoledronic Acid Serum Concentration",288 ng/mL
same,concentration at 0.333 h,"intravenous, animal ID 67, Study Group 1, IV 20 min infusion, ZA […], rHuPH20 0 U/mL, time 0.333 h, read-out: Zoledronic Acid Serum Concentration",556 ng/mL
same,concentration at 0.5 h,"intravenous, animal ID 67, Study Group 1, IV 20 min infusion, ZA […], rHuPH20 0 U/mL, time 0.5 h, read-out: Zoledronic Acid Serum Concentration",246 ng/mL
same,concentration at 1 h,"intravenous, animal ID 67, Study Group 1, IV 20 min infusion, ZA […], rHuPH20 0 U/mL, time 1 h, read-out: Zoledronic Acid Serum Concentration",77.8 ng/mL
same,concentration at 2 h,[2],16.6 ng/mL
same,concentration at 3 h,[2],6.67 ng/mL
same,concentration at 4 h,[2],3.35 ng/mL
same,clearance,"iv, absolute clearance by non-compartmental analysis of the IV dose (from Table 13), used for Study Groups 2 and 3, read-out: Serum CL (converted)",7.34 mL/min/kg
same,clearance,"iv, ZA […] 20-min IV infusion, individual pigs 57, 61, 67, read-out: CL (converted)",6.76 mL/min/kg
same,Tmax,"iv, ZA […] 20-min IV infusion, individual pigs 57, 61, 67, read-out: Tmax",15 min
same,half-life,"iv, ZA […] 20-min IV infusion, individual pigs 57, 61, 67, read-out: T½ λz (converted)",37.8 min
same,Vd,"iv, ZA […] 20-min IV infusion, individual pigs 57, 61, 67, read-out: Vss",0.104 L/kg
same,Vd,"iv, ZA […] 20-min IV infusion, individual pigs 57, 61, 67, read-out: Vz",0.371 L/kg
same,clearance,"iv, ZA […] 20-min IV infusion, n=3, read-out: CL, mean (converted)",7.34 mL/min/kg
same,clearance,"iv, ZA […] 20-min IV infusion, n=3, read-out: CL, median (converted)",7.36 mL/min/kg
same,Tmax,"iv, ZA […] 20-min IV infusion, n=3, read-out: Tmax, mean",15 min
same,Tmax,"iv, ZA […] 20-min IV infusion, n=3, read-out: Tmax, median",15 min
same,half-life,"iv, ZA […] 20-min IV infusion, n=3, read-out: T½ λz, mean (converted)",43.2 ± 4.8 min
same,half-life,"iv, ZA […] 20-min IV infusion, n=3, read-out: T½ λz, median (converted)",44.4 min
same,Vd,"iv, ZA […] 20-min IV infusion, n=3, read-out: Vss, mean",0.123 L/kg
same,Vd,"iv, ZA […] 20-min IV infusion, n=3, read-out: Vss, median",0.131 L/kg
same,Vd,"iv, ZA […] 20-min IV infusion, n=3, read-out: Vz, mean",0.458 ± 0.0759 L/kg
same,Vd,"iv, ZA […] 20-min IV infusion, n=3, read-out: Vz, median",0.498 L/kg
same,CL/F,"sc, pig 59, SC ZA […], 100 mL over 16 min, no rHuPH20, read-out: CL/F (converted)",7.97 mL/min/kg
same,Tmax,"sc, pig 59, SC ZA […], 100 mL over 16 min, no rHuPH20, read-out: Tmax",20 min
same,half-life,"sc, pig 59, SC ZA […], 100 mL over 16 min, no rHuPH20, read-out: T½ λz (converted)",66 min
same,Vd/F,"sc, pig 59, SC ZA […], 100 mL over 16 min, no rHuPH20, read-out: Vss/F",0.617 L/kg
same,Vd/F,"sc, pig 59, SC ZA […], 100 mL over 16 min, no rHuPH20, read-out: Vz/F",0.76 L/kg
same,CL/F,"sc, pig 60, SC ZA […], 100 mL over 16 min, no rHuPH20, read-out: CL/F (converted)",6.97 mL/min/kg
same,bioavailability,"sc, pig 60, SC ZA […], 100 mL over 16 min, no rHuPH20, read-out: SC Bioavailability (0-1 h)",55.5%
same,bioavailability,"sc, pig 60, SC ZA […], 100 mL over 16 min, no rHuPH20, read-out: SC Bioavailability (0-8 h)",105%
same,Tmax,"sc, pig 60, SC ZA […], 100 mL over 16 min, no rHuPH20, read-out: Tmax",20 min
same,half-life,"sc, pig 60, SC ZA […], 100 mL over 16 min, no rHuPH20, read-out: T½ λz (converted)",52.2 min
same,Vd/F,"sc, pig 60, SC ZA […], 100 mL over 16 min, no rHuPH20, read-out: Vss/F",0.526 L/kg
same,Vd/F,"sc, pig 60, SC ZA […], 100 mL over 16 min, no rHuPH20, read-out: Vz/F",0.524 L/kg
same,CL/F,"sc, pig 62, SC ZA […], 50 mL over 8 min, no rHuPH20, read-out: CL/F (converted)",10.2 mL/min/kg
same,bioavailability,"sc, pig 62, SC ZA […], 50 mL over 8 min, no rHuPH20, read-out: SC Bioavailability (0-1 h)",54%
same,bioavailability,"sc, pig 62, SC ZA […], 50 mL over 8 min, no rHuPH20, read-out: SC Bioavailability (0-8 h)",71.9%
same,Tmax,"sc, pig 62, SC ZA […], 50 mL over 8 min, no rHuPH20, read-out: Tmax",10 min
same,half-life,"sc, pig 62, SC ZA […], 50 mL over 8 min, no rHuPH20, read-out: T½ λz (converted)",58.2 min
same,Vd/F,"sc, pig 62, SC ZA […], 50 mL over 8 min, no rHuPH20, read-out: Vss/F",0.634 L/kg
same,Vd/F,"sc, pig 62, SC ZA […], 50 mL over 8 min, no rHuPH20, read-out: Vz/F",0.852 L/kg
same,CL/F,"sc, pig 69, SC ZA […], 25 mL over 4 min, no rHuPH20, read-out: CL/F (converted)",9.28 mL/min/kg
same,bioavailability,"sc, pig 69, SC ZA […], 25 mL over 4 min, no rHuPH20, read-out: SC Bioavailability (0-1 h)",56.9%
same,bioavailability,"sc, pig 69, SC ZA […], 25 mL over 4 min, no rHuPH20, read-out: SC Bioavailability (0-8 h)",78.8%
same,Tmax,"sc, pig 69, SC ZA […], 25 mL over 4 min, no rHuPH20, read-out: Tmax",10 min
same,half-life,"sc, pig 69, SC ZA […], 25 mL over 4 min, no rHuPH20, read-out: T½ λz (converted)",60.6 min
same,Vd/F,"sc, pig 69, SC ZA […], 25 mL over 4 min, no rHuPH20, read-out: Vss/F",0.652 L/kg
same,Vd/F,"sc, pig 69, SC ZA […], 25 mL over 4 min, no rHuPH20, read-out: Vz/F",0.811 L/kg
same,CL/F,"sc, pig 70, SC ZA […], 10 mL over 1.6 min, no rHuPH20, read-out: CL/F (converted)",7.69 mL/min/kg
same,bioavailability,"sc, pig 70, SC ZA […], 10 mL over 1.6 min, no rHuPH20, read-out: SC Bioavailability (0-1 h)",66.5%
same,bioavailability,"sc, pig 70, SC ZA […], 10 mL over 1.6 min, no rHuPH20, read-out: SC Bioavailability (0-8 h)",95.1%
same,Tmax,"sc, pig 70, SC ZA […], 10 mL over 1.6 min, no rHuPH20, read-out: Tmax",10 min
same,half-life,"sc, pig 70, SC ZA […], 10 mL over 1.6 min, no rHuPH20, read-out: T½ λz (converted)",85.2 min
same,Vd/F,"sc, pig 70, SC ZA […], 10 mL over 1.6 min, no rHuPH20, read-out: Vss/F",0.615 L/kg
same,Vd/F,"sc, pig 70, SC ZA […], 10 mL over 1.6 min, no rHuPH20, read-out: Vz/F",0.947 L/kg
same,CL/F,"sc, SC ZA […], no rHuPH20 (Study Group 2), n=4, read-out: CL/F, mean (converted)",8.52 mL/min/kg
same,CL/F,"sc, SC ZA […], no rHuPH20 (Study Group 2), n=4, read-out: CL/F, median (converted)",8.48 mL/min/kg
same,bioavailability,"sc, SC ZA […], no rHuPH20 (Study Group 2), n=4, read-out: SC Bioavailability (0-1 h), mean",58.2%
same,bioavailability,"sc, SC ZA […], no rHuPH20 (Study Group 2), n=4, read-out: SC Bioavailability (0-1 h), median",56.2%
